Experimental data published in article PMC11130262, “Ebselen analogues delay disease onset and its course in fALS by on-target SOD-1 engagement” (Scientific Reports, 2024).
Read-outs that look alike come from different tables or passages of the source.

Assays:
[1] = system: H4 cells expressing A4V SOD1; test: ATP bioluminescent (CellTiter-Glo) cell viability assay, H4 cells expressing A4V SOD1; format: cell-based, human; conditions: for cell survival: 10 and 25 μM, 24 h, individual drugs
Procedure: (§1) Human H4 neuroglioma cells (HTB-148, ATCC) and mouse Neuro2a neuroblastoma cells (CCL-131, ATCC) were cultured in Dulbecco’s modified Eagle’s medium (DMEM) (Gibco) supplemented with 10%v/v Foetal Bovine Serum (FBS) at 37 °C under humidified atmosphere with 5% CO2. Transfection of the Venus-BiFC SOD1 plasmids to H4 cells was carried out using Turbofect™ transfection agent (#R0533, Thermo Fisher Scientific) following protocols from the manufacture. Briefly, 1.5 × 10^5 H4 cells suspended in 1 mL medium were seeded on a well of 4 compartment-glass bottom dish (Cellview™, Greiner Bio-one) and grown at 37 °C for 24 h. 0.25 µg Venus-BiFC plasmids of wild-type or A4V SOD1 homodimer comprised of equimolar concentrations of VN-SOD1 and SOD1-VC were mixed with 1 µL Turbofect in 0.1 mL FBS-free DMEM and incubated at room temperature for 15 min before adding to seeded H4 cells. […] To determine cell viability, 2.5 × 10^4 cells were seeded in 0.2 mL media in a 96-well plate (Corning Costar, #10695951, Thermo Fisher Scientific). Cell viability was measured either using MTS assay (CellTiter 96, #G3580, Promega) on a plate-reader spectrometer (SpectraMax Plus 384, Molecular Devices) or using CellTiter-GloR 2.0 Assay (#G9241, Promega) following the manufacturer’s protocol. […] BMG POLARstar Omega microplate reader was used for luminescence measurement. To avoid the interference of the antioxidant compounds (ebselen and its analogues) with the luciferase activity in the presence of oxygen, the drugs containing media was replaced with a fresh medium prior to the addition of the reagent.

[2] = system: mouse neuronal N2a cells expressing G93A SOD1; design: method as in PMID 32862101; conditions: N2a cells expressing G93A SOD1, shown again in Fig. 1B; cited from earlier work
[3] = system: SOD1^G93A transgenic mice; test: Survival and behavioral experiments of SOD1G93A transgenic mice, chronic oral administration; format: in vivo, mouse; conditions: for disease onset (mean ± SD): female SOD1G93A mice, 0.016% w/w in powder food (estimated dose 24 mg/kg) from 70 days of age, controls 104.4 ± 8.7 (MR6-8-2) and 106.4 ± 9.0 (MR6-26-2)
Procedure: Transgenic mice expressing human SOD1^G93A with C57BL/6 background (B6.Cg‐Tg(SOD1*G93A)1Gur/J) (RRID: IMSR_JAX:004435) were prepared for in vivo experiments using our published protocol with determination of the times for disease onset and end-stage were previously[25],[61]. […] The diet was replenished three times per week, and the mice had free access to their assigned diet and deionized water. The body weight of the mice and clasping signs were measured every week. Disease onset was determined by the time when the mice reached maximum body weight. The clasping signs were scored as 0 (no sign), 1 (one hindlimb partially retracted), 2 (both hindlimb partially retracted), or 3 (hindlimbs were entirely retracted), as described elsewhere[62],[63]. Rotarod tests were performed every two weeks, as previously described[61],[62]. Briefly, the mice were placed on the rotating rods, which accelerated from 0 to 30 rpm for 5 min with 15 min interval between each trial. The longest latencies to fall from the rotating rods out of three trials were scored. All behavioral experiments were conducted under non-blinded conditions. The mice were housed in the specific pathogen-free (SPF) environment (with a 12 h light‐dark cycle at 23 ± 1 °C and 50 ± 5% humidity) and treated in compliance with the requirements of the Animal Care and Use Committee, Nagoya University. The experiments using genetically modified mice were approved by the Animal Care and Use Committee and the recombinant DNA experiment committee of Nagoya University. All methods used for transgenic mice experiments were in accordance with relevant guidelines and regulations and all methods are reported in accordance with ARRIVE guideline.

[4] = target: T1, D90A SOD1 (Homo sapiens, UniProt P00441, D91A); test: Bimolecular fluorescence complementation (BiFC) assay of SOD1 aggregation, D90A; format: cell-based; conditions: for reduction of aggregates / aggregation propensity: D90A, 50 µM
T1 construct: expressed in transfected cells; host or cells: human H4 neuroglioma cells (HTB-148, ATCC)
T1 sequence (P00441 whole entry D91A): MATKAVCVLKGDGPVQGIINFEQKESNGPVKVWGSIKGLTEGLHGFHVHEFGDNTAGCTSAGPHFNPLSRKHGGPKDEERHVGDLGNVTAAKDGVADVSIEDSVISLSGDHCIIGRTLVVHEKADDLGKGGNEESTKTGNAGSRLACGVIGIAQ
T1 sequence (P00441 2-154 D91A limits assumed): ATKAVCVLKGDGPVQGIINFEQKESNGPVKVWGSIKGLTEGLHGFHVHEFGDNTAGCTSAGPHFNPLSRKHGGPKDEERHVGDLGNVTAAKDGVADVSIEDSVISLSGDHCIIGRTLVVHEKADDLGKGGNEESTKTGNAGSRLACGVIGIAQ
Procedure: (§2) Human H4 neuroglioma cells cultured in glass-bottom dishes were transfected with Venus fragments as described above using Turbofect transfection reagent. Transfected H4 cells were stained with 5 µM DRAQ5 nuclear stain (ab108410, Abcam) and incubated at 37 °C for 5 min prior to cell imaging. Live cell imaging was performed on cells maintained in a humidified incubator (37 °C, 5% CO2) using a Zeiss LSM 710 microscope. To obtain large field of view for analysis, images were collected using a 4 × 4 tiles with a 20 × Fluar 0.8 NA (Carl Zeiss, Jena, Germany) at 1024 × 1024 pixels. Excitation of Venus fluorescent protein (VFP) was carried out with 514-nm argon laser while DRAQ5 was excited at 633 nm with a HeNe laser. Emitted light was collected through appropriate filters to eliminate any spill-overs. Image acquisition and processing were carried out using ZEN 2.1 software (Carl Zeiss, Jena Germany).
Following the drug treatment (24 h) of transfected cells and nuclear staining with DRAQ5 for 5 min the tiled images were generated as described above. […] Fiji software[52] was used to determine minimum and maximum diameter of cells and inclusions within the cells in pixel units. These cell/inclusion sizes were then used to set parameters in Cell Profiler[53]. The pipeline was adapted from the Speckle Counter example available from CellProfiler (https://cellprofiler.org/) for the batch analysis of the cells with or without inclusions. The low fluorescent cells missed by the cell profiler were adjusted by manual counting.

[5] = system: H4 cells expressing G93A SOD1; test: ATP bioluminescent (CellTiter-Glo) cell viability assay, H4 cells expressing G93A SOD1; format: cell-based, human; conditions: for cell survival: 10 and 25 μM, 24 h, individual drugs; for concentration up to which high level of cells viability is seen: dose-response 2.5 to 100 μM
[6] = system: H4 cells expressing wild-type SOD1; test: ATP bioluminescent (CellTiter-Glo) cell viability assay, H4 cells expressing wild-type SOD1; conditions: wild-type SOD1, dose-response 2.5 to 100 μM, Supplementary Fig. S1
Procedure: as §1, with “To avoid the interference of the antioxidant compounds (ebselen and its analogues) with the luciferase activity in the presence of oxygen, the drugs containing media was replaced with a fresh medium prior to the addition of the reagent.” left out

[7] = target: T2, H46R SOD1 (Homo sapiens, UniProt P00441, H47R); test: Bimolecular fluorescence complementation (BiFC) assay of SOD1 aggregation, H46R; format: cell-based; conditions: 50 µM
T2 construct: expressed in transfected cells; host or cells: human H4 neuroglioma cells (HTB-148, ATCC)
T2 sequence (P00441 whole entry H47R): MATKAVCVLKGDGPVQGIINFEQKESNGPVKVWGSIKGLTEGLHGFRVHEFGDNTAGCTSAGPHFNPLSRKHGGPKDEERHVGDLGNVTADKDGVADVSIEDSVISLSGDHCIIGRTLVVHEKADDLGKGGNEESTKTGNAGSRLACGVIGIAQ
T2 sequence (P00441 2-154 H47R limits assumed): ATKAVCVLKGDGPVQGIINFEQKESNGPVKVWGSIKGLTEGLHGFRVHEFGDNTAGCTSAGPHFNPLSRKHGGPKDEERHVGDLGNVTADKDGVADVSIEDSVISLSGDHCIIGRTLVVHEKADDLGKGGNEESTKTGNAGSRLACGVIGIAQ
Procedure: as §2
Following the drug treatment (24 h) of transfected cells and nuclear staining with DRAQ5 for 5 min the tiled images were generated as described above. […] Fiji software[52] was used to determine minimum and maximum diameter of cells and inclusions within the cells in pixel units. […]

[8] = system: spinal cords of SOD1^G93A mice; format: in vivo, mouse
Procedure: Immunoblotting and immunofluorescence analyses were performed as described previously. For the analysis of SOD1 oligomers with aberrant disulfide bonds (SOD1 S–S oligomers), sodium dodecyl sulfate–polyacrylamide gel electrophoresis was performed under non-reducing conditions. […] (Medimabs, Montreal, Quebec, Canada) was used at a 1:250 dilution. Other primary antibodies used for the study were anti-β-actin (1:5,000, #A5441, RRID: AB_476744, Sigma-Aldrich), anti-p62 (1:1,000 for immunoblotting, 1:500 for immunohistochemistry, #PM045, RRID: AB_2169714, Medical and Biological Laboratories (MBL), Nagoya, Japan), anti-polyubiquitin (1:1,000 for immunoblotting, 1:500 for immunohistochemistry, #D058‐3, RRID: AB_592937, MBL), and anti-choline acetyltransferase (ChAT) ((1:100 for immunohistochemistry, #AB144P, RRID:AB_2079751, EMD Millipore Corp., Billerica, MA, USA). Rabbit anti-human SOD1 antibody was raised in our laboratory against a recombinant human SOD1 peptide (aa 24–37) and purified with protein A[66].

[9] = target: T3, G93A SOD1 (Homo sapiens, UniProt P00441, G94A); test: Bimolecular fluorescence complementation (BiFC) assay of SOD1 aggregation, G93A; format: cell-based
T3 construct: expressed in transfected cells; host or cells: human H4 neuroglioma cells (HTB-148, ATCC)
T3 sequence (P00441 whole entry G94A): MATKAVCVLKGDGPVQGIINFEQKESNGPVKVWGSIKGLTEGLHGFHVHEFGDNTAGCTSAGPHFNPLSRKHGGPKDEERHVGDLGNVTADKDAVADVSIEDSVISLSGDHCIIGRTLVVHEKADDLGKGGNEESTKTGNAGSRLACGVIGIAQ
T3 sequence (P00441 2-154 G94A limits assumed): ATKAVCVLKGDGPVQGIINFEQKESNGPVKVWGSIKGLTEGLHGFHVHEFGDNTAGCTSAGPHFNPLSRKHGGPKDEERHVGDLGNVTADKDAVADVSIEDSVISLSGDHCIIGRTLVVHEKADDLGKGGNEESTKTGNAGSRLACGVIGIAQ
Procedure: Human H4 neuroglioma cells cultured in glass-bottom dishes were transfected with Venus fragments as described above using Turbofect transfection reagent. Transfected H4 cells were stained with 5 µM DRAQ5 nuclear stain (ab108410, Abcam) and incubated at 37 °C for 5 min prior to cell imaging. Live cell imaging was performed on cells maintained in a humidified incubator (37 °C, 5% CO2) using a Zeiss LSM 710 microscope. […]

[10] = Oral bioavailability and pharmacokinetic study in mice; format: in vivo, female CD1 mice
Procedure: The analysis is based on free measurable amounts of free drug in the plasma and thus is likely to be an underestimation of active drug compound due to the extensive serum albumin binding seen with drugs in this class.
F = (AUCINF-PO/mean AUCINF-IV)/(DosePO/DoseIV) × 100%, AUClast was alternatively used for F calculation when AUCINF was not available or beyond 120% of AUClast. The compound were formulated in 5%DMAC + 95% (20% HP-beta-CD in saline) at 0.2 mg/mL for IV dosing and CMC (0.5%), benzyl alcohol (0.5%), Tween 80 (0.4%) and NaCl (0.9%) at 3 mg/mL for PO dosing, respectively. PK parameters were estimated by non-compartmental model using WinNonlin 8.2.

[11] = system: Neuro2a cells with SOD1^G93A expression; test: Proteostasis immunoblotting in cultured Neuro2a cells expressing G93A SOD1; format: cell-based, mouse; conditions: 10 µM, 24 h; for poly-ubiquitinated proteins: Fig. 6J
Procedure: Neuro2a cells were seeded on 6 well plate (#140685 Corning Costar) at 5.0 × 10^4/well, and transfected with human wild-type or G93A SOD1 expressing plasmid[25] using Lipofectamine 2000 (Thermo Fisher Scientific) according to the manufacturer’s instructions.

[12] = target: A4V SOD1 (Homo sapiens, UniProt P00441, A5V)
Chain of A4V SOD1 (P00441 whole entry A5V): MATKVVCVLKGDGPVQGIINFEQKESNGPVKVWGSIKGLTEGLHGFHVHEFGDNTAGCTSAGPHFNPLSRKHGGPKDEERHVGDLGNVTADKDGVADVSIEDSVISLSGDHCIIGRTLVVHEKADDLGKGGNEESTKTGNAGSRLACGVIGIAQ
Chain of A4V SOD1 (P00441 2-154 A5V limits assumed): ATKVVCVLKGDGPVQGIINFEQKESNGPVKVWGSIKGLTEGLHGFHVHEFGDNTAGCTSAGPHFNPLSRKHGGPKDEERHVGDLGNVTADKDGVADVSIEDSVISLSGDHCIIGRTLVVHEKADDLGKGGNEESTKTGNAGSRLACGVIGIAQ
Procedure: as §1

[13] = system: SOD1^G93A transgenic mice; design: method as in PMID 32862101; conditions: cited from earlier work
[14] = female, CD1, mouse, in vivo, iv, 1 mg/kg
[15] = female, CD1, mouse, in vivo, po, 30 mg/kg

O=c1c2ccccc2[se]n1Cc1cccnc1 [MR6-8-2]
cell survival [1]: increased the cell survival
dosage restoring wild-type level viability, lower than edaravone [2]: 100 -fold
disease onset (mean ± SD) [3]: 115.5 ± 9.2 days
reduction of aggregates / aggregation propensity [4]: least effective
cell survival [5]: increased the cell survival
concentrations giving a sharp fall of viable cells (toxicity) [6]: above 25 µM
reduction of aggregates / aggregation propensity [7]: least effective

COc1ccc(Cn2[se]c3ccccc3c2=O)cn1 [MR6-26-2]
cell survival [1]: increased the cell survival
concentration up to which high level of cells viability is seen ([1]; dose-response 2.5 to 100 μM): up to 25 µM
concentration reviving the cells to maximum level ([1]; dose-response 2.5 to 100 μM, Supplementary Fig. S1): 12.5 µM
dosage restoring wild-type level viability, lower than edaravone [2]: 100 -fold
clasping scores ([3]; SOD1G93A mice, Fig. 5C): improvement
survival time ([3]; SOD1G93A mice, chronic oral): did not show a significant extension
slowing of disease onset ([3]; SOD1G93A mice, oral): approximately 15 days
body weights ([3]; Supplementary Fig. S4): unaffected
rotarod performance ([3]; Supplementary Fig. S4): unaffected
disease onset (mean ± SD) [3]: 121.1 ± 7.2 days
p62- and poly-ubiquitin-doubly positive inclusions in motor neurons ([8]; 120-days-old SOD1G93A lumbar spinal cord): substantially reduced
SOD1 oligomers with aberrant disulfide bonds in spinal cords ([8]; SOD1G93A mice, 120 days old, non-reducing SDS-PAGE): sharply decreased
misfolded SOD1 (C4F6 antibody) in lumbar spinal cord ([8]; early symptomatic SOD1G93A mice): reduced the accumulation of misfolded SOD1
motor neuron degeneration (ChAT-positive motor neurons) ([8]; early symptomatic SOD1G93A mice, Fig. 5J): without affecting the motor neuron degeneration
level of poly-ubiquitinated proteins in spinal cords ([8]; immunoblotting, insoluble fractions, 120 days old): decreased
insoluble SOD1 proteins in spinal cords ([8]; mouse, in vivo): sharply decreased
cells with more than 5 inclusions per cell ([9]; G93A SOD1, 50 µM, 24 h): no cells were detected
reduction of aggregates / aggregation propensity ([9]; G93A, 50 µM): most effective in reducing the aggregates
cells with more than 5 inclusions per cell ([4]; D90A SOD1, 50 µM, 24 h): no cells were detected
reduction of aggregates / aggregation propensity [4]: most effective in reducing the aggregates
AUC(0-inf) [10, 14]: 203 ng·h/mL
AUC(0-t) [10, 14]: 197 ng·h/mL
MRT inf [10, 14]: 0.267 h
Vd [10, 14]: 1.37 L/kg
clearance [10, 14]: 85.7 mL/min/kg
AUC(0-inf) [10, 15]: 1790 ng·h/mL
AUC(0-t) [10, 15]: 1730 ng·h/mL
CL [10, 15]: 4.17 mL/min/kg
MRTINF [10, 15]: 29.5 h
bioavailability [10, 15]: 29%
half-life [10, 15]: 1.5 h
half-life ([10]; female, CD1, mouse, plasma, IV dose at 1 mg/kg, mean, read-out: T1/2 (converted)): 0.347 h
half-life ([10]; female, CD1, mouse, plasma, oral dose of 30 mg/kg, mean, read-out: T1/2 (converted)): 1.35 h
clearance ([10]; mouse, in vivo): fast clearance
poly-ubiquitinated proteins [11]: reduced
cell survival [5]: increased the cell survival
concentration up to which high level of cells viability is seen [5]: up to 25 µM
cells displaying more than 5 inclusions per cell ([12]; A4V SOD1, 50 µM, 24 h, 75% in untreated cells): 29%
reduction of aggregates / aggregation propensity ([12]; A4V, 50 µM): most effective in reducing the aggregates
drug concentration found to reduce the aggregates effectively ([12]; A4V, doses 25, 50 and 100 µM, Fig. 3A): 50 µM
reduction of aggregates / aggregation propensity [7]: most effective in reducing the aggregates

O=c1c2ccccc2[se]n1-c1ccccc1 [ebselen, 2-phenyl-1,2-benzisoselenazol-3(2H)-one]
cell survival [1]: increased the cell survival
concentration up to which high level of cells viability is seen ([1]; dose-response 2.5 to 100 μM): up to 25 µM
reduction of aggregates / aggregation propensity [4]: least effective
neuroprotection in SOD1G93A mice by delaying disease onset [13]: partial neuroprotection
cell survival [5]: increased the cell survival
concentration up to which high level of cells viability is seen [5]: up to 25 µM
reduction of aggregates / aggregation propensity [7]: least effective

CC1=NN(c2ccccc2)C(=O)C1 [edaravone]
cell survival [1]: increased the cell survival
insoluble SOD1 species ([11]; Fig. 6I): tendency to reduce insoluble SOD1
poly-ubiquitinated proteins [11]: little effect
insoluble p62 ([11]; Fig. 6K): little effect
cell survival [5]: increased the cell survival

Nc1nc2ccc(OC(F)(F)F)cc2s1 [riluzole]
effect on proteostasis [11]: no effect on proteostasis
